Measured values published in paper PMC7066280 (Investigational New Drugs, 2019).
Read-outs that look alike come from different tables or passages of the source.

Experiment: Ivosidenib plasma PK after single and multiple 500 mg QD doses (dose expansion)
Type: in vivo, human
Settings: for Cmax / AUC(0-t) / Tmax: human, plasma, oral, 500 mg
Method: Additional predose samples were taken on cycle 1, day 8; cycle 1, day 15; cycle 3, day 1; and end of treatment.
Plasma ivosidenib was measured using two validated liquid chromatography-tandem mass spectrometry (LC-MS/MS) methods. The lower limit of quantification (LLOQ) was 1.00 ng/mL (low-range assay) or 50.0 ng/mL (high-range assay). […] Plasma 2-HG concentrations were measured using a qualified LC-MS/MS method with an LLOQ of 30.0 ng/mL. Concentrations of 2-HG in tumor biopsy samples were quantified using qualified LC-MS/MS methods with an LLOQ of 7.5 μg/g for brain tumor homogenate, 100 ng/g for liver tumor homogenate (low-range assay), and 30 μg/g for liver tumor homogenate (high-range assay). Plasma 4β-OHC and cholesterol were measured using a validated LC-MS/MS method. The LLOQ was 5 ng/mL for 4β-OHC and 25 μg/mL for cholesterol in human plasma.
PK parameters included area under the plasma concentration-time curve (AUC), maximum plasma concentration (Cmax), time to maximum plasma concentration (Tmax), terminal elimination half-life (t1/2), and apparent oral clearance at steady state (CLss/F). Accumulation ratio (Racc), based on Cmax and AUC, was also assessed during the dose escalation portion. PD (2-HG) parameters included baseline-effect value, area under the effect concentration-time curve (AUEC0-10h for the dose escalation portion, or AUEC0-8h for the dose escalation and expansion portions), percent change from baseline in AUEC (%BAUEC0-10h for the escalation portion, or %BAUEC0-8h for the dose escalation and expansion portions), average plasma concentration (Cavg), and percent inhibition for Cavg (%BCavg). For the dose escalation portion, the time-matched ratios of 4β-OHC to cholesterol were calculated.

SMILES: N#Cc1ccnc(N2C(=O)CC[C@H]2C(=O)N(c2cncc(F)c2)[C@H](C(=O)NC2CC(F)(F)C2)c2ccccc2Cl)c1 [ivosidenib]
- Cmax at steady state lower in glioma than in cholangiocarcinoma/chondrosarcoma: ~29%
- Cmax (expansion cholangiocarcinoma, cycle 1 day 1, geometric mean (geometric CV%)): 3660 ng/mL
- AUC(0-t) (expansion cholangiocarcinoma, cycle 1 day 1, geometric mean (geometric CV%), read-out: AUC0-8hr): 19700 ng·h/mL
- Tmax (expansion cholangiocarcinoma, cycle 1 day 1, median (minimum; maximum)): 3.08 h
- Cmax (expansion cholangiocarcinoma, cycle 2 day 1, geometric mean (geometric CV%)): 4580 ng/mL
- AUC(0-t) (expansion cholangiocarcinoma, cycle 2 day 1, geometric mean (geometric CV%), read-out: AUC0-8hr): 29000 ng·h/mL
- AUC(0-t) (expansion cholangiocarcinoma, cycle 2 day 1, geometric mean (geometric CV%), read-out: AUC0-24hr): 75600 ng·h/mL
- Tmax (expansion cholangiocarcinoma, cycle 2 day 1, median (minimum; maximum)): 2.03 h
- Cmax (expansion chondrosarcoma, cycle 1 day 1, geometric mean (geometric CV%)): 4260 ng/mL
- AUC(0-t) (expansion chondrosarcoma, cycle 1 day 1, geometric mean (geometric CV%), read-out: AUC0-8hr): 22900 ng·h/mL
- Tmax (expansion chondrosarcoma, cycle 1 day 1, median (minimum; maximum)): 2.98 h
- Cmax (expansion chondrosarcoma, cycle 2 day 1, geometric mean (geometric CV%)): 5300 ng/mL
- AUC(0-t) (expansion chondrosarcoma, cycle 2 day 1, geometric mean (geometric CV%), read-out: AUC0-8hr): 36200 ng·h/mL
- AUC(0-t) (expansion chondrosarcoma, cycle 2 day 1, geometric mean (geometric CV%), read-out: AUC0-24hr): 88700 ng·h/mL
- Tmax (expansion chondrosarcoma, cycle 2 day 1, median (minimum; maximum)): 2.08 h
- Cmax (expansion enhancing glioma, cycle 1 day 1, geometric mean (geometric CV%)): 3140 ng/mL
- AUC(0-t) (expansion enhancing glioma, cycle 1 day 1, geometric mean (geometric CV%), read-out: AUC0-8hr): 16000 ng·h/mL
- Tmax (expansion enhancing glioma, cycle 1 day 1, median (minimum; maximum)): 3.01 h
- Cmax (expansion enhancing glioma, cycle 2 day 1, geometric mean (geometric CV%)): 3800 ng/mL
- AUC(0-t) (expansion enhancing glioma, cycle 2 day 1, geometric mean (geometric CV%), read-out: AUC0-8hr): 24400 ng·h/mL
- AUC(0-t) (expansion enhancing glioma, cycle 2 day 1, geometric mean (geometric CV%), read-out: AUC0-24hr): 62600 ng·h/mL
- Tmax (expansion enhancing glioma, cycle 2 day 1, median (minimum; maximum)): 2.03 h
- Cmax (expansion non-enhancing glioma, cycle 1 day 1, geometric mean (geometric CV%)): 2790 ng/mL
- AUC(0-t) (expansion non-enhancing glioma, cycle 1 day 1, geometric mean (geometric CV%), read-out: AUC0-8hr): 14900 ng·h/mL
- Tmax (expansion non-enhancing glioma, cycle 1 day 1, median (minimum; maximum)): 2.58 h
- Cmax (expansion non-enhancing glioma, cycle 2 day 1, geometric mean (geometric CV%)): 3540 ng/mL
- AUC(0-t) (expansion non-enhancing glioma, cycle 2 day 1, geometric mean (geometric CV%), read-out: AUC0-8hr): 22200 ng·h/mL
- AUC(0-t) (expansion non-enhancing glioma, cycle 2 day 1, geometric mean (geometric CV%), read-out: AUC0-24hr): 55700 ng·h/mL
- Tmax (expansion non-enhancing glioma, cycle 2 day 1, median (minimum; maximum)): 3.05 h
- Cmax (expansion other solid tumors, cycle 1 day 1, geometric mean (geometric CV%)): 2290 ng/mL
- AUC(0-t) (expansion other solid tumors, cycle 1 day 1, geometric mean (geometric CV%), read-out: AUC0-8hr): 13800 ng·h/mL
- Tmax (expansion other solid tumors, cycle 1 day 1, median (minimum; maximum)): 2.55 h
- Cmax (expansion other solid tumors, cycle 2 day 1, geometric mean (geometric CV%)): 4130 ng/mL
- AUC(0-t) (expansion other solid tumors, cycle 2 day 1, geometric mean (geometric CV%), read-out: AUC0-8hr): 25100 ng·h/mL
- AUC(0-t) (expansion other solid tumors, cycle 2 day 1, geometric mean (geometric CV%), read-out: AUC0-24hr): 62200 ng·h/mL
- Tmax (expansion other solid tumors, cycle 2 day 1, median (minimum; maximum)): 1.98 h
- Cmax (expansion overall, cycle 1 day 1, geometric mean (geometric CV%)): 3310 ng/mL
- AUC(0-t) (expansion overall, cycle 1 day 1, geometric mean (geometric CV%), read-out: AUC0-8hr): 17600 ng·h/mL
- Tmax (expansion overall, cycle 1 day 1, median (minimum; maximum)): 3 h
- Cmax (expansion overall, cycle 2 day 1, geometric mean (geometric CV%)): 4210 ng/mL
- AUC(0-t) (expansion overall, cycle 2 day 1, geometric mean (geometric CV%), read-out: AUC0-8hr): 26600 ng·h/mL
- AUC(0-t) (expansion overall, cycle 2 day 1, geometric mean (geometric CV%), read-out: AUC0-24hr): 68500 ng·h/mL
- Tmax (expansion overall, cycle 2 day 1, median (minimum; maximum)): 2.14 h
